The source of these data is patent US20250057807A1, “TREATING A DISEASE USING A […] ACTIVE INGREDIENT PRESENT IN A PSEUDO-TERNARY PHASE SYSTEM” (Hepion Pharmaceuticals, Inc., priority 2018, published 2025).

One data set can be described thus: in vivo. More on the design: species or system Sprague Dawley rats. The settings on record: Sprague Dawley, rat, po, 30 mg/kg/day, liver level relative to whole blood. How it is done: SERIES 1 1/3/3/2/9 (Vitamin E/Maisine® CC/Propylene Glycol/Ethanol/Cremophor® RH40 (w/w/w/w/w)) CRV431 SMEDDS (50 mg/ml) was administered to Sprague Dawley rats (n=6) by oral gavage at 30 mg/kg/day for 7 days. At 12 hours post-dose on day 7, the animals were sacrificed and whole blood and livers were extracted and frozen. CRV431 was quantitated in whole blood using LC-ESI-MS (as for the human pharmacokinetic studies). For quantitation of CRV431 in liver, one gram samples of liver tissue were added to 9 ml of homogenizing solution (1% formic acid in water) and homogenized using a TissueLyser (Qiagen) at 30 Hz for 10 minutes. Aliquots were removed and analyzed by LC-ESI-MS as described above.

The nature of another data set: in vitro. The settings on record: human, pH 7.4. How it is done:
(§1) The supernatant was collected, diluted 1:1 with methanol, and drug concentrations measured by HPLC (Agilent 1100 series, UV detection) relative to standard curves. The polar surface area and log P were calculated using Molinspiration Cheminformatics (V2018.10, USA). Plasma protein binding was determined by equilibrium dialysis assays. Drug plasma samples were prepared to achieve a final concentration of 5 μM in human blood plasma by 500-fold dilution of 2.5 mM DMSO-drug stocks. Plasma solutions (300 μl) and PBS, pH 7.4 (500 μl), were added to adjacent chambers of Rapid Equilibrium Dialysis units (Thermo Scientific; 8K MWCO). Plates were sealed with plastic film and shaken on an orbital shaker at 225 rpm at 37° C. for 4.5 hr. Plasma and PBS samples were collected, and drugs extracted with a zinc sulfate/methanol precipitation method. After centrifugation at 3,300 rpm for 10 min, soluble drugs in methanol supernatants were analyzed by Liquid Chromatography (LC) Electrospray Ionization (ESI) Mass Spectrometry (LC-ESI-MS) (Agilent 1100 series, Santa Clara, USA) and quantified relative to standard curves.

A further data set in a line: clinical. More on the design: species or system human. The settings on record: in vivo. On the procedure:
The study was conducted at a clinical research facility for investigational medicines (Celerion, Arizona, USA) as part of a clinical Phase 1 single-ascending-dose (SAD) study and followed all FDA ethical guidelines. Patients were selected according to standardized inclusion/exclusion criteria for a Phase I SAD study. Healthy volunteers 18-55 years of age with no evidence of ongoing disease (as determined by the study investigator), or any use of nicotine (30 days prior to screening), or drugs of abuse (within the preceding 2 years), or use of chronic prescription medication (within 30 days), or acute prescription medication (within 14 days), or systemic over-the-counter medications including vitamins and herbal/natural supplements (within 7 days prior to the study dose) were enrolled in the study. The SMEDDS was dispensed (approximately 3 ml) into a 100 ml Gibco clear bottle and a 15-fold excess of filtered water (HPLC grade) was added. The mixture was swirled gently for 1-2 minutes until fully dispersed. The SMEDDS in-water dose was placed in the refrigerator and orally administered within 2 hours. […] Samples were immediately frozen and analyzed by LC-ESI-MS within 5 days. Briefly, whole blood samples were thawed and extracted using a zinc sulfate/methanol precipitation method.

A short description of another data set: physchem. The settings on record: pH 7.4, aqueous buffer, kinetic from dmso stock. On the procedure:
as §1

Several values for one entry are separate records, joined by “and”; a condition that tells them apart may be missing. Equal entries are not always repeated. Where a SMILES comes first, the peptide text is derived from it. [ ]: non-standard residue; d: D form. NMeThr(4R-Me,4-(CH2)6NHAc) = CN[C@H](C(=O)O)[C@H](O)[C@H](C)CCCCCCNC(C)=O; NMeL = CN[C@@H](CC(C)C)C(=O)O; NMeV = CN[C@H](C(=O)O)C(C)C; dNMeA = CN[C@H](C)C(=O)O; Abu = CC[C@H](N)C(=O)O

Take `CC[C@@H]1NC(=O)[C@H]([C@H](O)[C@H](C)CCCCCCNC(C)=O)N(C)C(=O)[C@H](C(C)C)N(C)C(=O)[C@H](CC(C)C)N(C)C(=O)[C@H](CC(C)C)N(C)C(=O)[C@@H](C)NC(=O)[C@H](C)NC(=O)[C@H](CC(C)C)N(C)C(=O)[C@H](C(C)C)NC(=O)[C@H](CC(C)C)N(C)C(=O)[C@@H](C)N(C)C1=O` [CRV431] (cyclo(A[dA][NMeL][NMeL][NMeV][NMeThr(4R-Me,4-(CH2)6NHAc)][Abu][dNMeA][NMeL]V[NMeL])): the Kp (usually the ratio of the level in a tissue or fluid to that in plasma or blood) in the data set “in vivo” worked out at 6.5. Further, the fraction unbound (usually free concentration divided by total concentration) at 4.5 hr, 5 μM in the data set “in vitro” amounted to 0.076. For the same compound, in “clinical” (human), the half-life – broadly, how long it takes for the measured level to halve – is roughly 100 h. Besides, the peak level in “clinical” (human, po, 1 mg/kg) (Cmax) was 334 ± 106 ng/mL. Also, in the data set “clinical” (2.5 mg/kg), the “Cmax relative to Neoral®” value is listed as “slightly greater than Neoral®” and the “overall exposure (AUC) relative to Neoral®” value is “approximately 14 times”. Moreover, the solubility (commonly how much of the substance goes into solution per volume) in the data set “physchem” is 115 µg/mL and 115 µM.
